From patent US4169834A, “Rifamycin derivatives” (Gruppo Lepetit S.p.A., priority 1977, dated 1979)
In brackets after ≈: the same amount, converted by molar mass.

Tests used:
Type in all cases: cell-based
Staph. Aureus = test: in vitro antibacterial activity (MIC), Staph. Aureus; details: Staphylococcus aureus
Excerpt: (§1) The MIC is expressed as μg/ml.

Staph. Aureus Tour = test: in vitro antibacterial activity (MIC), Staph. Aureus Tour; details: Staphylococcus aureus
Excerpt: as §1

Strept. haemolyticus = test: in vitro antibacterial activity (MIC), Strept. haemolyticus
Excerpt: as §1

Strept. faecalis = test: in vitro antibacterial activity (MIC), Strept. faecalis; details: Enterococcus faecalis
Excerpt: as §1

Strept. pneumoniae = test: in vitro antibacterial activity (MIC), Strept. pneumoniae; details: Streptococcus pneumoniae
Excerpt: as §1

Proteus vulgaris = test: in vitro antibacterial activity (MIC), Proteus vulgaris
Excerpt: as §1

Escherichia coli = test: in vitro antibacterial activity (MIC), Escherichia coli
Excerpt: as §1

Kleb. pneumoniae = test: in vitro antibacterial activity (MIC), Kleb. pneumoniae; details: Klebsiella pneumoniae
Excerpt: as §1

Pseud. aeruginosa = test: in vitro antibacterial activity (MIC), Pseud. aeruginosa; details: Pseudomonas aeruginosa
Excerpt: as §1

Myc. Tub. H37 Rv = test: in vitro antibacterial activity (MIC), Myc. Tub. H37 Rv

SMILES	MIC (Staph. Aureus) [µg/mL]	MIC (Staph. Aureus Tour) [µg/mL]	MIC (Strept. haemolyticus) [µg/mL]	MIC (Strept. faecalis) [µg/mL]	MIC (Strept. pneumoniae) [µg/mL]	MIC (Proteus vulgaris) [µg/mL]	MIC (Escherichia coli) [µg/mL]	MIC (Kleb. pneumoniae) [µg/mL]	MIC (Pseud. aeruginosa) [µg/mL]	MIC (Myc. Tub. H37 Rv) [µg/mL]
COC1C=COC2(C)Oc3c(C)c(O)c4c(O)c(c5sc(CC(C)C)nc5c4c3C2=O)NC(=O)C(C)=CC=CC(C)C(O)C(C)C(O)C(C)C(OC(C)=O)C1C (stereo not shown) [Example 5, 4-Deoxy-2'-isobutyl-thiazolo[5,4-c]rifamycin SV]	0.00078 (≈ 0.000981 µM)	0.001 (≈ 0.00126 µM)	0.001 (≈ 0.00126 µM)	0.0062 (≈ 0.0078 µM)	0.0062 (≈ 0.0078 µM)	3.12 (≈ 3.92 µM)	12.5 (≈ 15.7 µM)	50 (≈ 62.9 µM)	12.5 (≈ 15.7 µM)	0.15 (≈ 0.189 µM)
CCc1nc2c(s1)c1c(O)c3c(O)c(C)c4c(c32)C(=O)C(C)(OC=CC(OC)C(C)C(OC(C)=O)C(C)C(O)C(C)C(O)C(C)C=CC=C(C)C(=O)N1)O4 (stereo not shown) [Example 1, 4-Deoxy-2'-ethyl-thiazolo[5,4-c]rifamycin SV]	0.0004 (≈ 0.000522 µM)	0.00078 (≈ 0.00102 µM)	0.012 (≈ 0.0156 µM)	0.0062 (≈ 0.00808 µM)	0.0062 (≈ 0.00808 µM)	6.25 (≈ 8.15 µM)	12.5 (≈ 16.3 µM)	25 (≈ 32.6 µM)	12.5 (≈ 16.3 µM)	0.31 (≈ 0.404 µM)
COC1C=COC2(C)Oc3c(C)c(O)c4c(O)c(c5sc(C(C)C)nc5c4c3C2=O)NC(=O)C(C)=CC=CC(C)C(O)C(C)C(O)C(C)C(OC(C)=O)C1C (stereo not shown) [Example 4, 4-Deoxy-2'-isopropyl-thiazolo[5,4-c]rifamycin SV]	0.00078 (≈ 0.000999 µM)	0.00156 (≈ 0.002 µM)	0.012 (≈ 0.0154 µM)	0.012 (≈ 0.0154 µM)	0.012 (≈ 0.0154 µM)	6.25 (≈ 8 µM)	12.5 (≈ 16 µM)	25 (≈ 32 µM)	12.5 (≈ 16 µM)	0.31 (≈ 0.397 µM)
COC1C=COC2(C)Oc3c(C)c(O)c4c(O)c(c5sc(C)nc5c4c3C2=O)NC(=O)C(C)=CC=CC(C)C(O)C(C)C(O)C(C)C(OC(C)=O)C1C (stereo not shown) [Example 2, 4-Deoxy-2'-methyl-thiazolo[5,4-c]rifamycin SV]	0.00078 (≈ 0.00104 µM)	0.0031 (≈ 0.00412 µM)	0.0031 (≈ 0.00412 µM)	0.0031 (≈ 0.00412 µM)	0.0062 (≈ 0.00824 µM)	1.56 (≈ 2.07 µM)	12.5 (≈ 16.6 µM)	25 (≈ 33.2 µM)	25 (≈ 33.2 µM)	0.62 (≈ 0.824 µM)
COC1C=COC2(C)Oc3c(C)c(O)c4c(O)c(c5scnc5c4c3C2=O)NC(=O)C(C)=CC=CC(C)C(O)C(C)C(O)C(C)C(O)C1C (stereo not shown) [Example 8, 25-Desacetyl-4-deoxy-thiazolo[5,4-c]rifamycin SV]	0.02 (≈ 0.0287 µM)	0.1 (≈ 0.144 µM)	0.1 (≈ 0.144 µM)	0.4 (≈ 0.574 µM)	0.1 (≈ 0.144 µM)	0.78 (≈ 1.12 µM)	6.25 (≈ 8.97 µM)	12.5 (≈ 17.9 µM)	12.5 (≈ 17.9 µM)	0.6 (≈ 0.861 µM)
CCCCCCc1nc2c(s1)c1c(O)c3c(O)c(C)c4c(c32)C(=O)C(C)(OC=CC(OC)C(C)C(OC(C)=O)C(C)C(O)C(C)C(O)C(C)C=CC=C(C)C(=O)N1)O4 (stereo not shown) [Example 6, 4-Deoxy-2'-hexyl-thiazolo[5,4-c]rifamycin SV]	0.0012 (≈ 0.00146 µM)	0.0031 (≈ 0.00377 µM)	0.012 (≈ 0.0146 µM)	0.012 (≈ 0.0146 µM)	0.012 (≈ 0.0146 µM)	3.12 (≈ 3.79 µM)	12.5 (≈ 15.2 µM)	25 (≈ 30.4 µM)	12.5 (≈ 15.2 µM)	1.2 (≈ 1.46 µM)
CCCc1nc2c(s1)c1c(O)c3c(O)c(C)c4c(c32)C(=O)C(C)(OC=CC(OC)C(C)C(OC(C)=O)C(C)C(O)C(C)C(O)C(C)C=CC=C(C)C(=O)N1)O4 (stereo not shown) [Example 3, 4-Deoxy-2'-propyl-thiazolo[5,4-c]rifamycin SV]	0.00078 (≈ 0.000999 µM)	0.00156 (≈ 0.002 µM)	0.0031 (≈ 0.00397 µM)	0.00156 (≈ 0.002 µM)	0.00078 (≈ 0.000999 µM)	3.12 (≈ 4 µM)	12.5 (≈ 16 µM)	25 (≈ 32 µM)	12.5 (≈ 16 µM)	0.62 (≈ 0.794 µM)
